This is an account of results in patent publication US6121248A, “Anti-viral agent” (priority 1998, dated 2000).

In brackets after ≈: the same amount, converted by molar mass. Where two headings read alike, the source gives them in different places. Some results are limits rather than exact numbers.

One series has as its system varicella-zoster virus. In words: Anti-viral activity against varicella-zoster virus, microplaque reduction method. The format is cell-based, varicella-zoster virus (HOSEN strain). The note with it: for EC50: Human alphaherpesvirus 3, MRC5, 72 h, varicella-zoster virus HOSEN strain, MRC-5 cells, 35° C., day 3, read-out: ED50 (50% effective density); for SI (selectivity index, CC50/ED50): varicella-zoster virus. As for the experimental part:
Determination of Anti-viral Activity against Varicella-zoster Virus
(§1) The anti-viral activity against varicella-zoster virus was determined by the microplaque reduction method. That is, MRC-5 cells were cultured in a 96-well microtiter plate until the cells reached the confluent state. Each of the compounds being tested was added to the wells to which a preparation of varicella-zoster virus (HOSEN strain) was subsequently added. The plate was cultured at 35° C. in a CO2 incubator. On day 3 after the culture, physiological saline containing 10% formalin was added to the wells and the plate was allowed to stand overnight to fix the cells to the wells. After wasing the plate, the cells were stained with a crystal violet solution and then washed. The focus formation by varicella-zoster virus was observed microscopically and the number of the foci was counted.
(§2) The concentration of each compound that inhibits by 50% of the number of foci observed in a group containing no compound was determined as a 50% effective density (ED50).
(§3) The selectivity index (SI), which is the ratio of the cytotoxic concentration to the anti-virally effective density, was determined by the equation: […]
For orientation: Plaques are areas of infected cells; plaque reduction assays count them against a control.

A short description of series [1]: Cytotoxicity in virus-free MRC-5 cells (Example 1). The class given is cell-based. The note with it: human. As for the experimental part:
as §1
The virus-free group in which, in place of the preparation of varicella-zoster virus, the culture medium was added to the MRC-5 cells was also cultured in the same manner.

The test system of the next series is cytomegalovirus. In words: Anti-viral activity against cytomegalovirus, microplaque reduction method. The class given is cell-based, human cytomegalovirus (AD 169 strain). The settings on record: for EC50: Human betaherpesvirus 5, MRC5, 144 h, human cytomegalovirus AD 169 strain, MRC-5 cells, 37° C., day 6, read-out: ED50 (50% effective density); for SI (selectivity index, CC50/ED50): cytomegalovirus. As for the experimental part: Determination of Anti-viral Activity against Cytomegalovirus
(§4) The anti-viral activity against cytomegalovirus was also determined by the microplaque reduction method in the same manner as in Example 1. That is, MRC-5 cells were cultured in a 96-well microtiter plate until the cells reached the confluent state. Each of the compounds being tested was added to the wells to which a preparation of human cytomegalovirus (AD 169 strain) was subsequently added. The plate was cultured at 37° C. in a CO2 incubator. On day 6 after the culture, physiological saline containing 10% formalin was added to the wells and the plate was allowed to stand overnight to fix the cells to the wells. After washing the plate, the cells were stained with a crystal violet solution and then washed. The focus formation by cytomegalovirus was observed microscopically and the number of the foci was counted.
as §2, §3

The nature of series [2]: Cytotoxicity in virus-free MRC-5 cells (Example 2). The format is cell-based. The note with it: human. As for the experimental part:
as §4
The virus-free group in which, in place of the preparation of cytomegalovirus, the culture medium was added to the MRC-5 cells was also cultured in the same manner.

Series [3] is described as follows: Acute toxicity test, variation of body weight of mice. The format is in vivo, Mouse: ICR. The settings on record: 1 or 2 g/kg ip., male ICR mice. As for the experimental part: With respect to 2-thio-5-iodocytosine arabinoside (5-I-AraSC) which was evidenced to have the anti-viral effect in vitro, the acute toxicity was also determined in the following manner.
Mouse: ICR, male, 4 weeks;
Drug: 5-I-AraSC, 1 or 2 g/kg, ip., n=6.
The drug 5-I-AraSC was administered in a dosage of 1 or 2 g/kg to each mouse intraperitoneally, and the variation of a body weight of each mouse was examined.

Where [4] appears, read: MRC-5 cells, virus-free, cultured as in varicella-zoster test (day 3), read-out: CC50 (50% cytotoxic concentration).

Take `O=c1[nH]c(=S)n([C@@H]2O[C@H](CO)[C@@H](O)[C@@H]2O)cc1I` [2-thio-5-iodouracil arabinoside]: in the series with varicella-zoster virus, the EC50 was 3.1 µg/mL (≈ 8.03 µM) and the “SI (selectivity index, CC50/ED50)” value stood at 6.5. Also, in series [1] (setting [4]), the CC50 at 72 h came to 20 µg/mL (≈ 51.8 µM).
Turning to `Nc1nc(=S)n([C@@H]2O[C@H](CO)[C@@H](O)[C@@H]2O)cc1F` [2-thio-5-fluorocytosine arabinoside], the EC50 in the series with varicella-zoster virus was 1.65 µg/mL (≈ 5.95 µM); in the series on cytomegalovirus, 0.16 µg/mL (≈ 0.577 µM). The “SI (selectivity index, CC50/ED50)” value with varicella-zoster virus was above 60; with cytomegalovirus, above 625. In series [1] (setting [4]), the CC50 at 72 h is above 100 µg/mL. Further, in series [2] (MRC-5 cells, virus-free, cultured as in cytomegalovirus test (day 6), read-out: CC50 (50% cytotoxic concentration)), the CC50 at 144 h was above 100 µg/mL.
As to `Nc1nc(=S)n([C@@H]2O[C@H](CO)[C@@H](O)[C@@H]2O)cc1I` [2-thio-5-iodocytosine arabinoside], in the series with varicella-zoster virus, the EC50 was found to be 0.7 µg/mL (≈ 1.82 µM) and the “SI (selectivity index, CC50/ED50)” value was above 143. The compound also returned a CC50 at 72 h in series [1] (mrc-5 cells) above 100 µg/mL. For the same compound, in the series with cytomegalovirus, the EC50 amounted to 0.26 µg/mL (≈ 0.675 µM) and the “SI (selectivity index, CC50/ED50)” value is above 385. In series [2] (mrc-5 cells), this compound had a CC50 at 144 h above 100 µg/mL. In addition, in series [3] (during the test), the “death of the mice” value is “No death of the mice was observed during the test”. The acute toxicity entry in series [3] (overall conclusion) was “not so strong”.
As to `Nc1nc(=S)n([C@@H]2O[C@H](CO)[C@@H](O)[C@@H]2O)cc1Br` [2-thio-5-bromocytosine arabinoside], in the series with varicella-zoster virus, the EC50 stood at 7.5 µg/mL (≈ 22.2 µM) and the “SI (selectivity index, CC50/ED50)” value was above 13. The CC50 at 72 h in series [1] (mrc-5 cells) was above 100 µg/mL. Also, in the series with cytomegalovirus, the EC50 stood at 2.4 µg/mL (≈ 7.1 µM) and the “SI (selectivity index, CC50/ED50)” value is recorded as above 42. In addition, the CC50 at 144 h in series [2] (mrc-5 cells) was above 100 µg/mL.
